{"source": "patent US20170226120A1", "about": "“INHIBITORS OF HIF PROLYL HYDROXYLASE” (MERCK SHARP & DOHME CORP., priority 2014, published 2017)", "note": "pIC50: −log10 of the molar value."}
{"test_system": "not listed separately", "test": "Tissue PK profile in rat (liver and plasma drug level)", "type": "in vivo", "conditions": "in vivo, po, 10 mg/kg, liver concentration", "procedure": "(§1) The tissue PK profile of compounds described in this application were evaluated in rat. The tissue was harvested 4 hours after PO dosing at 10 mpk (vehicle: 0.5% MC; dose volume: 5 mL/Kg) and the drug level was determined. Shown in Table 1 are compound concentrations of selected examples in rat liver and plasma, as well as liver to plasma drug ratio.", "units": {"concentration at 4 h": "nM"}}
{"smiles": "O=C(O)CNC(=O)c1c(O)c2c(n(Cc3ncc(C(F)(F)F)cn3)c1=O)COC2", "note": "[Example 9, 2-(4-hydroxy-2-oxo-1-((5-(trifluoromethyl)pyrimidin-2-yl)methyl)-1,2,5,7-tetrahydrofuro[3,4-b]pyridine-3-carboxamido)acetic acid]", "concentration at 4 h": 1810}
{"smiles": "O=C(O)CNC(=O)c1c(O)c2c(n(Cc3nc4ccccc4o3)c1=O)COC2", "note": "[Example 46, 2-(1-(benzo[d]oxazol-2-ylmethyl)-4-hydroxy-2-oxo-1,2,5,7-tetrahydrofuro[3,4-b]pyridine-3-carboxamido)acetic acid]", "concentration at 4 h": 2070}
{"test_system": "not listed separately", "test": "Tissue PK profile in rat (liver and plasma drug level)", "type": "in vivo", "conditions": "in vivo, po, 10 mg/kg, plasma concentration", "procedure": "as §1", "units": {"concentration at 4 h": "nM"}}
{"smiles": "O=C(O)CNC(=O)c1c(O)c2c(n(Cc3ncc(C(F)(F)F)cn3)c1=O)COC2", "note": "[Example 9, 2-(4-hydroxy-2-oxo-1-((5-(trifluoromethyl)pyrimidin-2-yl)methyl)-1,2,5,7-tetrahydrofuro[3,4-b]pyridine-3-carboxamido)acetic acid]", "concentration at 4 h": 37.6}
{"smiles": "O=C(O)CNC(=O)c1c(O)c2c(n(Cc3nc4ccccc4o3)c1=O)COC2", "note": "[Example 46, 2-(1-(benzo[d]oxazol-2-ylmethyl)-4-hydroxy-2-oxo-1,2,5,7-tetrahydrofuro[3,4-b]pyridine-3-carboxamido)acetic acid]", "concentration at 4 h": 34.5}
{"test_system": "not listed separately", "test": "Tissue PK profile in rat (liver and plasma drug level)", "type": "in vivo", "conditions": "liver/plasma, 10 mg/kg, 4 hours after PO dosing at 10 mpk, vehicle 0.5% MC, read-out: liver/plasma ratio", "procedure": "as §1"}
{"smiles": "O=C(O)CNC(=O)c1c(O)c2c(n(Cc3ncc(C(F)(F)F)cn3)c1=O)COC2", "note": "[Example 9, 2-(4-hydroxy-2-oxo-1-((5-(trifluoromethyl)pyrimidin-2-yl)methyl)-1,2,5,7-tetrahydrofuro[3,4-b]pyridine-3-carboxamido)acetic acid]", "Kp at 4 h": 43.6}
{"smiles": "O=C(O)CNC(=O)c1c(O)c2c(n(Cc3nc4ccccc4o3)c1=O)COC2", "note": "[Example 46, 2-(1-(benzo[d]oxazol-2-ylmethyl)-4-hydroxy-2-oxo-1,2,5,7-tetrahydrofuro[3,4-b]pyridine-3-carboxamido)acetic acid]", "Kp at 4 h": 55}
{"target": "T1, human HIF-PHD2 (Homo sapiens, UniProt Q9GZT9)", "T1 construct": "FLAG-tagged full length PHD2 expressed in and purified from baculovirus-infected Sf9 cells; FLAG; made in house; host or cells: baculovirus-infected Sf9 cells", "T1 sequence (Q9GZT9 whole entry)": "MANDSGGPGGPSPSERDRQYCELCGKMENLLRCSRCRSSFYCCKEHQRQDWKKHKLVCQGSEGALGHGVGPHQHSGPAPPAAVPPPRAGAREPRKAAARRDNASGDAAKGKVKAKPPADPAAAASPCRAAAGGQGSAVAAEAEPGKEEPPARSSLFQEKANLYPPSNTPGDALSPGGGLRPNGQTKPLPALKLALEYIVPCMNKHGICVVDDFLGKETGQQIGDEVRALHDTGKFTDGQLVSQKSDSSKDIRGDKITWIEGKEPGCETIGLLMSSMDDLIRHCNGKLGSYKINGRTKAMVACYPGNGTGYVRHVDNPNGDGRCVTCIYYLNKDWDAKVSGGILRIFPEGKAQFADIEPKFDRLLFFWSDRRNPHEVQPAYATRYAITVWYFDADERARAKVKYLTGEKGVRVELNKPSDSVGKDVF", "test": "HIF-PHD2 inhibition, time resolved fluorescence assay of HIF-1α peptide hydroxylation", "type": "biochemical", "conditions": "FLAG-tagged full length PHD2; 0.2 μM 2-oxoglutarate, 0.5 μM HIF-1α peptide", "procedure": "To each well of a 384-well plate, 1 μL of test compounds in DMSO (final concentration ranging from 0.3 nM to 10 uM) were added into 20 μl of assay buffer (50 mM Tris pH 7.4/0.01% Tween-20/0.1 mg/ml bovine serum albumin/10 μM ferrous sulfate/1 mM sodium ascorbate/20 μg/ml catalase) containing 0.15 μg/ml FLAG-tagged full length PHD2 expressed in and purified from baculovirus-infected Sf9 cells. After a 5 min preincubation at room temperature, the enzymatic reactions were initiated by the addition of 4 μL of substrates {final concentrations of 0.2 μM 2-oxoglutarate and 0.5 μM HIF-1α peptide biotinyl-[…] […] After incubation for 45 minutes at room temperature, the reactions were terminated by the addition of a 25 μL quench/detection mix to a final concentration of 1 mM ortho-phenanthroline, 0.1 mM EDTA, 0.5 nM anti-(His)6 LANCE reagent (Perkin-Elmer Life Sciences), 100 nM AF647-labeled streptavidin (Invitrogen), and 2 μg/ml (His)6-VHL complex {S. Tan Protein Expr. Purif."}
{"smiles": "CCc1ccc(Cn2c3c(c(O)c(C(=O)NCC(=O)O)c2=O)COC3)cn1", "note": "[Example 63, 2-(4-Hydroxy-2-oxo-1-((6-ethylpyridin-3-yl)methyl)-1,2,5,7-tetrahydrofuro[3,4-b]pyridine-3-carboxamido)acetic acid]", "pIC50": 8.27}
{"smiles": "C[C@H](NC(=O)c1c(O)c2c(n(Cc3ccc(C(F)(F)F)cc3)c1=O)COC2)C(=O)O", "note": "[Example 3, (S)-2-(4-hydroxy-2-oxo-1-(4-(trifluoromethyl)benzyl)-1,2,5,7-tetrahydrofuro[3,4-b]pyridine-3-carboxamido)propanoic acid]", "pIC50": 7.44}
{"smiles": "O=C(O)CNC(=O)c1c(O)c2c(n(Cc3ccccc3C(=O)O)c1=O)COC2", "note": "[Example 58, 2-((3-((carboxymethyl)carbamoyl)-4-hydroxy-2-oxofuro[3,4-b]pyridin-1(2H,5H,7H)-yl)methyl)benzoic acid]", "pIC50": 7.76}
{"smiles": "Cc1cc(C#N)ccc1Cn1c2c(c(O)c(C(=O)NCC(=O)O)c1=O)COC2", "note": "[Example 49, 2-(1-(4-cyano-2-methylbenzyl)-4-hydroxy-2-oxo-1,2,5,7-tetrahydrofuro[3,4-b]pyridine-3-carboxamido)acetic acid]", "pIC50": 8.29}
{"smiles": "COc1ccc(Cn2c3c(c(O)c(C(=O)NCC(=O)O)c2=O)COC3)cn1", "note": "[Example 51, 2-(4-hydroxy-1-((6-methoxypyridin-3-yl)methyl)-2-oxo-1,2,5,7-tetrahydrofuro[3,4-b]pyridine-3-carboxamido)acetic acid]", "pIC50": 8.17}
{"smiles": "CC(C)c1ccc(Cn2c3c(c(O)c(C(=O)NCC(=O)O)c2=O)COC3)cc1", "note": "[Example 29, 2-(4-hydroxy-1-(4-isopropylbenzyl)-2-oxo-1,2,5,7-tetrahydrofuro[3,4-b]pyridine-3-carboxamido)acetic acid]", "pIC50": 8.54}
{"smiles": "O=C(O)CNC(=O)c1c(O)c2c(n(Cc3ccccn3)c1=O)COC2", "note": "[Example 36, 2-((3-((carboxymethyl)carbamoyl)-4-hydroxy-2-oxofuro[3,4-b]pyridin-1(2H,5H,7H)-yl)methyl)pyridin-1-ium chloride]", "pIC50": 8.32}
{"smiles": "Cc1cc(Cn2c3c(c(O)c(C(=O)NCC(=O)O)c2=O)COC3)ccc1Cl", "note": "[Example 50, 2-(1-(4-chloro-3-methylbenzyl)-4-hydroxy-2-oxo-1,2,5,7-tetrahydrofuro[3,4-b]pyridine-3-carboxamido)acetic acid]", "pIC50": 8.30}
{"smiles": "O=C(O)CNC(=O)c1c(O)c2c(n(Cc3ccc4[nH]cnc4c3)c1=O)COC2", "note": "[Example 65, 2-(1-((1H-Benzo[d]imidazol-5-yl)methyl)-4-hydroxy-2-oxo-1,2,5,7-tetrahydrofuro[3,4-b]pyridine-3-carboxamido)acetic acid]", "pIC50": 7.93}
{"smiles": "O=C(O)CNC(=O)c1c(O)c2c(n(Cc3ncco3)c1=O)COC2", "note": "[Example 15, 2-(4-hydroxy-1-(oxazol-2-ylmethyl)-2-oxo-1,2,5,7-tetrahydrofuro[3,4-b]pyridine-3-carboxamido)acetic acid]", "pIC50": 8.01}
{"smiles": "Cc1ncsc1Cn1c2c(c(O)c(C(=O)NCC(=O)O)c1=O)COC2", "note": "[Example 8, 2-(4-hydroxy-1-((4-methylthiazol-5-yl)methyl)-2-oxo-1,2,5,7-tetrahydrofuro[3,4-b]pyridine-3-carboxamido)acetic acid]", "pIC50": 8.28}
{"smiles": "O=C(O)CNC(=O)c1c(O)c2c(n(Cc3cccnc3)c1=O)COC2", "note": "[Example 37, 3-((3-((carboxymethyl)carbamoyl)-4-hydroxy-2-oxofuro[3,4-b]pyridin-1(2H,5H,7H)-yl)methyl)pyridin-1-ium chloride]", "pIC50": 8.48}
{"smiles": "O=C(O)CNC(=O)c1c(O)c2c(n(Cc3ccccc3)c1=O)COC2", "note": "[Example 25, 2-(1-benzyl-4-hydroxy-2-oxo-1,2,5,7-tetrahydrofuro[3,4-b]pyridine-3-carboxamido)acetic acid]", "pIC50": 8.04}
{"smiles": "O=C(O)CNC(=O)c1c(O)c2c(n(Cc3cccc(C(=O)O)c3)c1=O)COC2", "note": "[Example 59, 3-((3-((carboxymethyl)carbamoyl)-4-hydroxy-2-oxofuro[3,4-b]pyridin-1(2H,5H,7H)-yl)methyl)benzoic acid]", "pIC50": 8.10}
{"smiles": "CS(=O)(=O)c1ccc(Cn2c3c(c(O)c(C(=O)NCC(=O)O)c2=O)COC3)cc1", "note": "[Example 7, 2-(4-hydroxy-1-(4-(methylsulfonyl)benzyl)-2-oxo-1,2,5,7-tetrahydrofuro[3,4-b]pyridine-3-carboxamido)acetic acid]", "pIC50": 8.15}
{"smiles": "O=C(O)CNC(=O)c1c(O)c2c(n(Cc3ccc(Cl)cc3F)c1=O)COC2", "note": "[Example 52, 2-(1-(4-chloro-2-fluorobenzyl)-4-hydroxy-2-oxo-1,2,5,7-tetrahydrofuro[3,4-b]pyridine-3-carboxamido)acetic acid]", "pIC50": 8.57}
{"smiles": "CC(C)(C)c1ccc(Cn2c3c(c(O)c(C(=O)NCC(=O)O)c2=O)COC3)cc1", "note": "[Example 30, 2-(1-(4-(tert-butyl)benzyl)-4-hydroxy-2-oxo-1,2,5,7-tetrahydrofuro[3,4-b]pyridine-3-carboxamido)acetic acid]", "pIC50": 8.40}
{"smiles": "COC(=O)c1cccc(Cn2c3c(c(O)c(C(=O)NCC(=O)O)c2=O)COC3)c1", "note": "[Example 40, 2-(4-hydroxy-1-(3-(methoxycarbonyl)benzyl)-2-oxo-1,2,5,7-tetrahydrofuro[3,4-b]pyridine-3-carboxamido)acetic acid]", "pIC50": 8.09}
{"smiles": "N#Cc1ccc(Cn2c3c(c(O)c(C(=O)NCC(=O)O)c2=O)COC3)cc1F", "note": "[Example 53, 2-(1-(4-cyano-3-fluorobenzyl)-4-hydroxy-2-oxo-1,2,5,7-tetrahydrofuro[3,4-b]pyridine-3-carboxamido)acetic acid]", "pIC50": 8.15}
{"smiles": "O=C(O)CNC(=O)c1c(O)c2c(n(Cc3cccc(F)c3)c1=O)COC2", "note": "[Example 43, 2-(1-(3-fluorobenzyl)-4-hydroxy-2-oxo-1,2,5,7-tetrahydrofuro[3,4-b]pyridine-3-carboxamido)acetic acid]", "pIC50": 8.08}
{"smiles": "NC(=O)c1ccc(Cn2c3c(c(O)c(C(=O)NCC(=O)O)c2=O)COC3)cc1", "note": "[Example 60, 2-(1-(4-Carbamoylbenzyl)-4-hydroxy-2-oxo-1,2,5,7-tetrahydrofuro[3,4-b]pyridine-3-carboxamido)acetic acid]", "pIC50": 8.37}
{"smiles": "O=C(O)CNC(=O)c1c(O)c2c(n(Cc3ccc(F)cc3)c1=O)COC2", "note": "[Example 26, 2-(1-(4-fluorobenzyl)-4-hydroxy-2-oxo-1,2,5,7-tetrahydrofuro[3,4-b]pyridine-3-carboxamido)acetic acid]", "pIC50": 8.57}
{"smiles": "CNC(=O)c1ccc(Cn2c3c(c(O)c(C(=O)NCC(=O)O)c2=O)COC3)cc1", "note": "[Example 23, 2-(4-hydroxy-1-(4-(methylcarbamoyl)benzyl)-2-oxo-1,2,5,7-tetrahydrofuro[3,4-b]pyridine-3-carboxamido)acetic acid]", "pIC50": 8.00}
